Assays:
[1] = DPPH test for the elimination of free radicals (activity as free-radical scavenger); conditions: DPPH 100 μmol/l in methanol, absorption at 515 nm; smaller = better
Protocol: The activity of the exemplary compounds as free-radical scavengers was compared with conventional free-radical scavengers. For this, the DPPH (1,1-diphenyl-2-picryl-hydrazyl) test for the elimination of free-radicals was employed (Lebensm.-Wiss. u. Technol., 1995, vol. 28, pp. 25 to 30).
DPPH was dissolved in methanol to give a concentration of 100 μmol/l. A series of dilutions of the example compounds, vitamin C, α-tocopherol and 3,5-ditert-butyl-4-hydroxytoluene were prepared in methanol. Methanol served as control. 2500 μl of the DPPH solution were mixed with 500 μl of each test solution and the decrease in absorption at 515 nm was read off until the decrease was less than 2% per hour. The activity of the test substances as free-radical scavengers was calculated from the following equation:
Activity as free-radical scavenger (%)=100−(absorption of the test compounds)/absorption of the control)×100.
From activity as free-radical scavenger (%) in a number of dilutions of test compounds, for each test compound the effective relative concentration EC50 (based on the initial concentration of DPPH, EC=c (test compound)/c(DPPH)) of a test compound was calculated at which the free-radical DPPH was eliminated by 50%. The smaller the EC50 values, the better is the free-radical scavenging action.

[2] = Rancimat accelerated autoxidation of lipids by air, soya bean oil; conditions: antioxidant power AP = IP(with test solution)/IP(control sample), soya bean oil purified on alumina type N, 0.05% test substance, higher = better
Protocol: (§1) The activity of the example compounds as antioxidants was compared with that of conventional antioxidants. The test system used was accelerated autoxidation of lipids by air with or without antioxidants, using the Rancimat apparatus (Deutsche Lebensmiftel-Rundschau 1974, vol. 70, pp. 57 to 65) (Rancimat is a registered trademark of Metrohm AG, Herisau, Switzerland).
(§2) The example compounds, vitamin C, α-tocopherol and 3,5-ditert-butyl-4-hydroxytoluene were dissolved in methanol or acetone and 100 μl of the respective test solution were added to a prepared oil sample of 3 g. Only solvent was added to a control sample. A constant dry air stream (20 I/h) was blown through the heated oil sample containing the test solution and the volatile oxidation products (principally short-chain fatty acids, such as formic acid or acetic acid) were collected in a receiver containing water. The conductivity of this aqueous solution was measured continuously and documented. The oxidation of (unsaturated) fats proceeds here only very slowly for a period, and then suddenly increases. The time until the increase is termed the induction period (IP).
(§3) From the equation below, the antioxidant power (AP) was obtained:
(§4) AP=IP(with test solution)/IP(control sample).
(§5) The higher the AP, the higher is the antioxidant activity.

[3] = Rancimat accelerated autoxidation of lipids by air, squalene; conditions: antioxidant power AP = IP(with test solution)/IP(control sample), squalene purified on alumina type N, stabilized with 1 ppm α-tocopherol
Protocol: as §1, §2, §3, §4, §5
The results for the experiment at 80° C. in squalene which was purified on alumina type N and stabilized with 1 ppm of α-tocopherol are shown in Table 7: […]

Compound	EC50 (effective relative concentration, c(test compound)/c(DPPH), at which the free-radical DPPH was eliminated by 50%) [1]	AP in soya bean oil at 100° C. containing 0.05% of test substance [2]	AP in squalene at 80° C. containing 0.005% test substance [3]
CCCCCCNC(=O)NCCc1ccc(O)c(O)c1 [Example 6, N-[2-(3,4-Dihydroxyphenyl)ethyl]-N′-hexylurea]	0.20 mol/mol	26	60
CCCCC(CC)COC(=O)NCCc1ccc(O)c(O)c1 (centres unmarked) [Example 4, N-[2-(3,4-Dihydroxyphenyl)ethyl]-O-(2-ethylhexyl)urethane]	0.25 mol/mol	7.6	50
O=C1O[C@H]([C@@H](O)CO)C(O)=C1O [Vitamin C, reference compound]	0.27 mol/mol	1.2	0.7
CCCCCCNC(=S)NCCc1ccc(O)c(O)c1 [Example 5, N-[2-(3,4-Dihydroxyphenyl)ethyl]-N′-hexylthiourea]	–	14.4	59
Cc1cc(C(C)(C)C)c(O)c(C(C)(C)C)c1 [3,5-Ditert-butyl-4-hydroxytoluene, reference compound]	0.24 mol/mol	4.8	38
Cc1c(C)c2c(c(C)c1O)CC[C@@](C)(CCC[C@H](C)CCC[C@H](C)CCCC(C)C)O2 [α-Tocopherol, reference compound]	0.25 mol/mol	5.1	39
COC(=O)NCCc1ccc(O)c(O)c1 [Example 1, N-[2-(3,4-Dihydroxyphenyl)ethyl]-O-methylurethane]	0.27 mol/mol	15.3	76
CC(C)[C@@H]1CC[C@@H](C)C[C@H]1OC(=O)NCCc1ccc(O)c(O)c1 [Example 2, N-[2-(3,4-Dihydroxyphenyl)ethyl]-O-[(1R,3R,4S)-menthyl]urethane]	0.35 mol/mol	7.1	25
CCCCCCOC(=O)NCCc1ccc(O)c(O)c1 [Example 3, N-[2-(3,4-Dihydroxyphenyl)ethyl]-O-hexylurethane]	0.24 mol/mol	9.8	46

— US20030069307A1, “2-(3,4-Dihydroxyphenyl)ethyl-substituted carbonic acid derivatives and their use” (priority 2001, published 2003)
